# Test results published in patent publication EP0028716B1, “Motility increasing peptides and their use” (HOECHST AKTIENGESELLSCHAFT, priority 1979, dated 1986).
# Legend:
# [1] = tested on: Motorik des Magen-Darmtrakts und der ableitenden Harnwege; experiment: Stimulation of the motility of the gastrointestinal tract and the efferent urinary tract; assay type: in vivo, Hund; details: dose needed relative to the peptides of the invention
# [2] = tested on: Motorik des Magen-Darmtrakts und der ableitenden Harnwege; experiment: as above; assay type: in vivo, Hund; details: parent compound compared with analogues varied in positions A-D
# Procedure: Die erfindungsgemässen Peptide stimulieren die Motorik des Magen-Darmtrakts und der ableitenden Harnwege beim Hund und beim Menschen. Sie steigern den Ruhetonus und die segmentale Kontraktionsaktivität des Darmes und fördern dadurch sekundär auch die Wasserresorption aus dem Darmlumen (lleum).
# Die erfindungsgemässen Peptide wirken intravenös bereits in einer Dosierung von 10 ng/kg und können unbedenklich auch in höherer Dosierung angewandt werden. […] Das parasympathomimetisch wirkende Carbaminoylcholin benötigt für die gleiche Wirkung etwa eine 10 fache Dosierung. So zählen die erfindungsgemässen Peptide zu den stärksten Effektoren der Motorik des Magen-Darmtrakts und der ableitenden Harnwege. Ihre morphinähnliche Wirkung ist zwar bekannt, doch überschreiten bei der geringen erforderlichen Dosierung weder nach intravenöser, subcutaner noch intranasaler Anwendung die wirksamen Dosen die Blut-Hirn-Schranke. Sie üben deshalb in der für den erfindungsgemässen Zweck erforderlichen Menge keine Wirkungen im Zentralnervensystem aus.
Molecule,höhere Dosierung für ähnliche / gleiche Wirkung [1] [fach],"Wirkung (motility stimulation, in words) [2]"
C[N+](C)(C)CCOC(N)=O [Carbaminoylcholin],~10,
Enkephalin,,sehr schwach wirksamen
